The source of these data is publication PMC10698194 (Nature Communications, 2023).

Bridge positions count the residues as written; N and C are the ends. Square brackets hold non-standard residues; d marks the D form. Peptide text beside a SMILES is read from it. * marks the point of attachment. X1 = C=CCN1CC[C@]23c4c5ccc(O)c4O[C@H]2[C@H](N*)CC[C@@]3(O)[C@H]1C5

The target in this experiment is T1, human KOR H304A (Homo sapiens, UniProt P41145, H304A).
T1 construct: FLAG; expressed in transfected cells; host or cells: HEK293T
Put plainly: BRET β-arrestin-2 biosensor assay. The format is cell-based.

T1 sequence (P41145 whole entry H304A): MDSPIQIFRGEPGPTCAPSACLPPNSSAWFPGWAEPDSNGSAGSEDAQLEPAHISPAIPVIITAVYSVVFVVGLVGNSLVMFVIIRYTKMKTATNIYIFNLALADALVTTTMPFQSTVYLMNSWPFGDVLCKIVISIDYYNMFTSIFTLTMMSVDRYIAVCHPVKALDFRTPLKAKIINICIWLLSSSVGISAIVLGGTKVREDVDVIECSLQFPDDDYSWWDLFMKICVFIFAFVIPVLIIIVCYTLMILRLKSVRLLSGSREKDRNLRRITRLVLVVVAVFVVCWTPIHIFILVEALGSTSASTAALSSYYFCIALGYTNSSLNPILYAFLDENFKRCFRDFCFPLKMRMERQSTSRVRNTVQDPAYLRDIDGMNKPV

With `C=CCN1CC[C@]23c4c5ccc(O)c4O[C@H]2[C@H](NC(=O)[C@@H](Cc2ccccc2)NC(=O)[C@@H](NC(=O)[C@@H]2CSCC(=O)N[C@@H](Cc4ccc(O)cc4)C(=O)N[C@@H](C)C(=O)N[C@H](Cc4ccc(O)cc4)C(=O)N[C@@H]([C@@H](C)O)C(=O)N[C@@H]([C@@H](C)O)C(=O)N2)[C@@H](C)O)CC[C@@]3(O)[C@H]1C5` [DNCP-β-NalA(1)] ({CH2CO}-YA[dY]TTCT[dF]-X1; thioether N-6), the Emax is 34.5 ± 1.18%.
